Laboratory results taken from US11654094B2, “Composition comprising benzoic acid amide compound and cyclodextrin solubilizing agent” (AMOREPACIFIC CORPORATION, priority 2017, dated 2023).
Values after ≈ are worked out from the molar mass of the structure shown. Like-named read-outs stand apart in the source and are kept apart here.

Legend:
[1] = Amount of solubilizers needed to dissolve DBAB in water (synergy of cyclodextrin with other solubilizers); assay type: physicochemical; settings: for solubility of the composition: 0.1% by weight DBAB
Excerpt: The synergistic effect of cyclodextrin as a solubilizer of the present invention in combination with other solubilizers (a second solubilizer and a third solubilizer) was investigated.

[2] = pH and solubility of HP-β-CD/DBAB compositions; assay type: physicochemical; settings: HP-β-CD and DBAB mixed at a weight ratio of 1:1
Excerpt: In addition to investigation of the solubility improvement with varying pH, the solubility of the composition was investigated with varying the pH of the composition and the weight ratio of HP-β-CD and DBAB as shown in Table 3 below.

[3] = Solubility of DBAB achieved by solvents; assay type: physicochemical; settings: organic solvent or mixture
melanin synthesis = settings: background statement; verified through cell and artificial skin tests; cited from earlier work
MITF = settings: through the cAMP-PKA-CREB signal pathway; background statement; cited from earlier work
[4] = Solubility of DBAB for each type of cyclodextrin and their 1:1 combinations (amount of CD required); assay type: physicochemical; settings: single cyclodextrin or 1:1 weight ratio combination
Procedure: In order to investigate the solubility of one part by weight of DBAB for each type of cyclodextrin and the synergistic effect between cyclodextrins, the solubility of each of α-CD, γ-CD, HP-α-CD, HP-β-CD and HP-γ-CD and the solubility of their 1:1 weight ratio combinations was determined, as shown in Table 4 below.

[5] = Solubility of DBAB at various weight ratios of HP-β-CD and γ-CD, total CD 0.5%; settings: 0.2% by weight of each of HP-β-CD and γ-CD, test method of Table 5
Procedure: In this case, 10% by weight of PEG.PPG-17.6 copolymer, 0.1% by weight of DBAB, 39.4% by weight of propanediol, 50% by weight of water and 0.5% by weight of the total CD were used.
In addition, the test method of Table 5 was carried out by using 0.2% by weight of each of HP-β-CD and γ-CD with an addition of 0.1% by weight of HP-α-CD, HP-γ-CD, α-CD or β-CD.

Molecule: COc1cc(OC)c(C23CC4CC(CC(C4)C2)C3)cc1C(=O)NCc1ccc(O)cc1O [DBAB, 5-adamantan-1-yl-N-(2,4-dihydroxybenzyl)-2,4-dimethoxy-benzoic acid amide]
- solubility of the composition ([1]; 30% by weight PEG.PPG-17.6 copolymer, 0.6% by weight HP-β-CD): transparently dissolved
- solubility of the composition ([1]; 50% by weight PEG.PPG-17.6 copolymer, balance water): transparently dissolved
- pH at which the composition has improved solubility [2]: ≥ 12.72
- solubility ([3]; PEG.PPG-17.6 copolymer, read-out: solubility of DBAB achieved by PEG.PPG-17.6 copolymer): 81.3 mg/mL (≈ 186 mM)
- solubility ([3]; propanediol, read-out: solubility of DBAB achieved by propanediol): 5.92 mg/mL (≈ 13.5 mM)
- melanin synthesis (melanin synthesis): inhibiting melanin synthesis
- expression of MITF (MITF): reduces the expression of MITF

Molecule: OC[C@H]1O[C@@H]2O[C@H]3[C@H](O)[C@@H](O)[C@@H](O[C@H]4[C@H](O)[C@@H](O)[C@@H](O[C@H]5[C@H](O)[C@@H](O)[C@@H](O[C@H]6[C@H](O)[C@@H](O)[C@@H](O[C@H]7[C@H](O)[C@@H](O)[C@@H](O[C@H]1[C@H](O)[C@H]2O)O[C@@H]7CO)O[C@@H]6CO)O[C@@H]5CO)O[C@@H]4CO)O[C@@H]3CO [α, α-cyclodextrin]
- amount of CD required (weight ratio CD:DBAB, x:1) to transparently dissolve one part by weight of DBAB [4]: >20
- effect on solubility of DBAB of adding 0.1% by weight of a further cyclodextrin [5]: did not improve the solubility

Molecule: OC[C@H]1O[C@@H]2O[C@H]3[C@H](O)[C@@H](O)[C@@H](O[C@H]4[C@H](O)[C@@H](O)[C@@H](O[C@H]5[C@H](O)[C@@H](O)[C@@H](O[C@H]6[C@H](O)[C@@H](O)[C@@H](O[C@H]7[C@H](O)[C@@H](O)[C@@H](O[C@H]8[C@H](O)[C@@H](O)[C@@H](O[C@H]1[C@H](O)[C@H]2O)O[C@@H]8CO)O[C@@H]7CO)O[C@@H]6CO)O[C@@H]5CO)O[C@@H]4CO)O[C@@H]3CO [β, β-cyclodextrin]
- amount of CD required (weight ratio CD:DBAB, x:1) to transparently dissolve one part by weight of DBAB [4]: >20
- effect on solubility of DBAB of adding 0.1% by weight of a further cyclodextrin [5]: did not improve the solubility

Molecule: hydroxypropyl-α-cyclodextrin [HPα]
- amount of CD required (weight ratio CD:DBAB, x:1) to transparently dissolve one part by weight of DBAB [4]: >20
- effect on solubility of DBAB of adding 0.1% by weight of a further cyclodextrin [5]: did not improve the solubility

Molecule: hydroxypropyl-β-cyclodextrin [HP-β-CD]
- PEG.PPG-17.6 copolymer replaced by 0.6% of HP-β-CD ([1]; composition comprising DBAB): 20%
- PEG.PPG-17.6 copolymer replaced by 0.1% by weight of HP-β-CD ([1]; composition with 0.1% by weight of DBAB): 20 % by weight
- amount of CD required (weight ratio CD:DBAB, x:1) to transparently dissolve one part by weight of DBAB [4]: 20

Molecule: hydroxypropyl-γ-cyclodextrin [HPγ]
- amount of CD required (weight ratio CD:DBAB, x:1) to transparently dissolve one part by weight of DBAB [4]: >20
